Species on record: Rattus norvegicus
Test: DrugMatrix - Regimen: Daily Repeat
Format: toxicity, organism-based, Sprague-Dawley
Set-up: regimen Daily Repeat, gender Male, age 6-8 weeks
Details: in vivo, po, route oral GAVAGE, vehicle 100 % WATER; for ABSOLUTE BASOPHIL / ABSOLUTE EOSINOPHIL / ABSOLUTE LYMPHOCYTE / ABSOLUTE MONOCYTE / ABSOLUTE SEGMENTED NEUTROPHIL / BASOPHIL / EOSINOPHIL / ERYTHROCYTE COUNT / HEMATOCRIT / HEMOGLOBIN / LEUKOCYTE COUNT / LYMPHOCYTE / MEAN CORPUSCULAR HEMOGLOBIN / MEAN CORPUSCULAR HEMOGLOBIN CONCENTRATION / MEAN CORPUSCULAR VOLUME / MONOCYTE / NEUTROPHIL / NUCLEATED RED BLOOD CELLS / PLATELET COUNT: tissue Blood; for ALANINE AMINOTRANSFERASE / ALBUMIN / ALKALINE PHOSPHATASE / ASPARTATE AMINOTRANSFERASE / BLOOD UREA NITROGEN / CARBON DIOXIDE / CHLORIDE / CHOLESTEROL / CREATINE PHOSPHOKINASE / CREATININE / GLUCOSE / LACTATE DEHYDROGENASE / LIPASE / PHOSPHORUS / POTASSIUM / SODIUM / TOTAL BILIRUBIN / TOTAL PROTEIN / URIC ACID: tissue Plasma
[1] = 175 mg/kg, 120 h, dose level High, time 5 day
[2] = […], 72 h, dose 5.8 mg/Kg, dose level Low, time 3 day
[3] = […], 120 h, dose 5.8 mg/Kg, dose level Low, time 5 day

SMILES: O=c1[nH]c(=O)n(C2CCCO2)cc1F (centres undefined) [TEGAFUR]
- ABSOLUTE BASOPHIL [1]: 0 CELLS/uL
- ABSOLUTE EOSINOPHIL [1]: 47 CELLS/uL
- ABSOLUTE LYMPHOCYTE [1]: 11945 CELLS/uL
- ABSOLUTE MONOCYTE [1]: 125.33 CELLS/uL
- ABSOLUTE SEGMENTED NEUTROPHIL [1]: 416 CELLS/uL
- BASOPHIL [1]: 0%
- EOSINOPHIL [1]: 0.33%
- ERYTHROCYTE COUNT [1]: 6.13 x10E6/uL
- HEMATOCRIT [1]: 37.33%
- HEMOGLOBIN [1]: 14.9 G/DL
- LEUKOCYTE COUNT [1]: 12.53 x10E3/uL
- LYMPHOCYTE [1]: 95.33%
- MEAN CORPUSCULAR HEMOGLOBIN [1]: 24.33 pg
- MEAN CORPUSCULAR HEMOGLOBIN CONCENTRATION [1]: 39.9 G/DL
- MEAN CORPUSCULAR VOLUME [1]: 60.9 fL
- MONOCYTE [1]: 1%
- NEUTROPHIL [1]: 3.33%
- NUCLEATED RED BLOOD CELLS [1]: 0 /100WBC
- PLATELET COUNT [1]: 1252.33 x10E3/uL
- ALANINE AMINOTRANSFERASE [1]: 40 u/L
- ALBUMIN [1]: 4.43 G/DL
- ALKALINE PHOSPHATASE [1]: 333 u/L
- ASPARTATE AMINOTRANSFERASE [1]: 113 u/L
- BLOOD UREA NITROGEN [1]: 19.67 mg/dL
- CARBON DIOXIDE [1]: 26 mmol/L
- CHLORIDE [1]: 106 MEQ/L
- CHOLESTEROL [1]: 80.67 mg/dL
- CREATINE PHOSPHOKINASE [1]: 419.33 u/L
- CREATININE [1]: 0.24 mg/dL
- GLUCOSE [1]: 146.33 mg/dL
- LACTATE DEHYDROGENASE [1]: 797.67 u/L
- LIPASE [1]: 9.33 u/L
- PHOSPHORUS [1]: 10.2 mg/dL
- POTASSIUM [1]: 5.48 MEQ/L
- SODIUM [1]: 149.83 MEQ/L
- TOTAL BILIRUBIN [1]: 0.17 mg/dL
- TOTAL PROTEIN [1]: 6.13 G/DL
- URIC ACID [1]: 1.43 mg/dL
- ABSOLUTE BASOPHIL [2]: 0 CELLS/uL
- ABSOLUTE EOSINOPHIL [2]: 50 CELLS/uL
- ABSOLUTE LYMPHOCYTE [2]: 13948.67 CELLS/uL
- ABSOLUTE MONOCYTE [2]: 166.67 CELLS/uL
- ABSOLUTE SEGMENTED NEUTROPHIL [2]: 1434.67 CELLS/uL
- BASOPHIL [2]: 0%
- EOSINOPHIL [2]: 0.33%
- ERYTHROCYTE COUNT [2]: 5.51 x10E6/uL
- HEMATOCRIT [2]: 34.4%
- HEMOGLOBIN [2]: 13.43 G/DL
- LEUKOCYTE COUNT [2]: 15.6 x10E3/uL
- LYMPHOCYTE [2]: 89.67%
- MEAN CORPUSCULAR HEMOGLOBIN [2]: 24.37 pg
- MEAN CORPUSCULAR HEMOGLOBIN CONCENTRATION [2]: 39.03 G/DL
- MEAN CORPUSCULAR VOLUME [2]: 62.43 fL
- MONOCYTE [2]: 1%
- NEUTROPHIL [2]: 9%
- NUCLEATED RED BLOOD CELLS [2]: 0 /100WBC
- PLATELET COUNT [2]: 1387 x10E3/uL
- ALANINE AMINOTRANSFERASE [2]: 47.33 u/L
- ALBUMIN [2]: 4.23 G/DL
- ALKALINE PHOSPHATASE [2]: 325.33 u/L
- ASPARTATE AMINOTRANSFERASE [2]: 100.33 u/L
- BLOOD UREA NITROGEN [2]: 15.33 mg/dL
- CARBON DIOXIDE [2]: 28.33 mmol/L
- CHLORIDE [2]: 100.33 MEQ/L
- CHOLESTEROL [2]: 86 mg/dL
- CREATINE PHOSPHOKINASE [2]: 626 u/L
- CREATININE [2]: 0.22 mg/dL
- GLUCOSE [2]: 138.67 mg/dL
- LACTATE DEHYDROGENASE [2]: 764.67 u/L
- LIPASE [2]: 9.67 u/L
- PHOSPHORUS [2]: 12.43 mg/dL
- POTASSIUM [2]: 6.48 MEQ/L
- SODIUM [2]: 143.37 MEQ/L
- TOTAL BILIRUBIN [2]: 0.17 mg/dL
- TOTAL PROTEIN [2]: 5.97 G/DL
- URIC ACID [2]: 1.57 mg/dL
- ABSOLUTE BASOPHIL [3]: 0 CELLS/uL
- ABSOLUTE EOSINOPHIL [3]: 53.67 CELLS/uL
- ABSOLUTE LYMPHOCYTE [3]: 12194.67 CELLS/uL
- ABSOLUTE MONOCYTE [3]: 43 CELLS/uL
- ABSOLUTE SEGMENTED NEUTROPHIL [3]: 1808.67 CELLS/uL
- BASOPHIL [3]: 0%
- EOSINOPHIL [3]: 0.33%
- ERYTHROCYTE COUNT [3]: 5.38 x10E6/uL
- HEMATOCRIT [3]: 32.9%
- HEMOGLOBIN [3]: 13.1 G/DL
- LEUKOCYTE COUNT [3]: 14.1 x10E3/uL
- LYMPHOCYTE [3]: 86.67%
- MEAN CORPUSCULAR HEMOGLOBIN [3]: 24.33 pg
- MEAN CORPUSCULAR HEMOGLOBIN CONCENTRATION [3]: 39.83 G/DL
- MEAN CORPUSCULAR VOLUME [3]: 61.1 fL
- MONOCYTE [3]: 0.33%
- NEUTROPHIL [3]: 12.67%
- NUCLEATED RED BLOOD CELLS [3]: 0.33 /100WBC
- PLATELET COUNT [3]: 1303.67 x10E3/uL
- ALANINE AMINOTRANSFERASE [3]: 51 u/L
- ALBUMIN [3]: 4.13 G/DL
- ALKALINE PHOSPHATASE [3]: 305.67 u/L
- ASPARTATE AMINOTRANSFERASE [3]: 93.67 u/L
- BLOOD UREA NITROGEN [3]: 16 mg/dL
- CARBON DIOXIDE [3]: 24.33 mmol/L
- CHLORIDE [3]: 102.67 MEQ/L
- CHOLESTEROL [3]: 77.33 mg/dL
- CREATINE PHOSPHOKINASE [3]: 365 u/L
- CREATININE [3]: 0.22 mg/dL
- GLUCOSE [3]: 140 mg/dL
- LACTATE DEHYDROGENASE [3]: 424.33 u/L
- LIPASE [3]: 9.33 u/L
- PHOSPHORUS [3]: 11.73 mg/dL
- POTASSIUM [3]: 6.27 MEQ/L
- SODIUM [3]: 142.73 MEQ/L
- TOTAL BILIRUBIN [3]: 0.27 mg/dL
- TOTAL PROTEIN [3]: 5.97 G/DL
- URIC ACID [3]: 1.6 mg/dL

Reference: ChEMBL document CHEMBL3885881, “DrugMatrix”
